# Reference: patent US20080058272A1, “Nonamer Peptides for Cancer Treatment” (priority 2006, published 2008)
# System: PBMC of melanoma patients
# Experiment: Flow cytometry with HLA-A2/FAPα peptide multimers after in vitro stimulation
# Format: cell-based, human
# Method: The human HLA-A*0201-positive cell lines T2, a TAP-deficient T cell leukemia/B cell line hybrid and JY, a B-LCL were cultured in RPMI 1640 supplemented with 10% heat inactivated FCS. After informed consent peripheral blood lymphocytes (PBLs) were collected from HLA-A2-positive patients with advanced malignant melanoma. PBLs from HLA-A2-positive healthy individuals were used as controls. PBLs were isolated using Lymphoprep separation (Axis-Shield PoC AS, Oslo, Norway) according to the manufacturer's instructions and used directly or frozen in FCS with 10% DMSO. PBL were cultured in RPMI/10% human AB serum. Dendritic cells (DCs) were generated from PBMC by adherence on culture dishes at 37° C. for 60 minutes in RPMI enriched with 10% human AB serum. […]
# After peptide-specific stimulation with FAPα peptides or with FAPα mRNA transfected DC, generated as described previously (Fassnacht et al. 2005) PBLs were stained with HLA-A2/FAPα peptide FITC-labeled multimers (a kind gift of Jorgen Scholler, Dako, Glostrup, Denmark) in PBS/0.1% BSA/FCS for 30 min in the dark, followed by staining with anti-CD8-PE (Dako, Glostrup, Denmark) for 30 min at 4° C. in the dark. Samples were analyzed on BD FACS Canto (Becton Dickinson, Heidelberg, Germany) using WinMDi or FCS Express V3.
sequence,measurement,setting,value
GLFKCGIAV (listed as Homo sapiens) [FAPα^639-647],detection of HLA-A2/FAPα^639-647 specific T cells,after in vitro stimulation with FAPα peptide-loaded dendritic cells,able to detect
same,detection of HLA-A2/FAPα^639-647 specific T cells,after stimulation with DCs transfected with FAPα mRNA,can be detected
